“And” between values parts separate entries of the source, which are not always exact repeats. Equal entries are not always repeated. Where two headings read alike, the source gives them in different places.
Legend:
[1] = system: SKES cells (Ewing Sarcoma cell line); experiment: CCK-8 tetrazolium tumor cell growth inhibition, SKES; type: cell-based; settings: Homo sapiens
Protocol: A modified tetrazolium salt assay using the CCK-8 kit (Sigma-Aldrich; St Louis, Mo.) was used to measure the inhibition of human tumor cell growth. Tumor cells (5000-7500 per well) were added to 96 well plates and allowed to attach for 4-5 hours. Compounds were serially diluted and added in triplicate at a concentration of 0.02 to 5 μM. DMSO was included as a vehicle control. Cells were incubated in the presence of compound for 3 days. After incubation CCK-8 reagent was added to each well and incubated for 2-4 hours. Viable cells were quantitated spectrophotometrically at a wavelength of 450 nm. Percent viability of each sample was calculated from the A450 values as follows: % viability=(A450 nm sample/A450 nm DMSO-treated cells×100). […] IC50 activities of particular compounds were determined using SKES cells (Ewing Sarcoma cell line).

[2] = human liver microsome, no cofactor, 60 min
[3] = rat liver microsome, no cofactor, 60 min
[4] = mouse liver microsome, no cofactor, 60 min
[5] = dog liver microsome, no cofactor, 60 min
[6] = Pharmacokinetics after IV and oral administration; type: in vivo; settings: BALB/c mice or Sprague Dawley rats
Protocol: Certain pharmacokinetics parameters were determined for certain compounds in vivo for intravenous and oral administration. Briefly, compounds were formulated and administered using IV bolus, continuous IV infusion or oral administration. Blood was collected at multiple time points over 24 hours and processed into plasma. Plasma was analyses for parent using LC/MS/MS. Certain parameters for certain compounds were obtained in duplicate.

[7] = 72 h, SKES cells, 3 days with compound, CCK-8 (TABLE 3)
[8] = 20 mg/kg po, labrasol/tetraglycol 9:1
[9] = 20 mg/kg po, labrasol:tetraglycol:water 72:8:20
[10] = plasma, iv, 5 mg/kg, 5 mg/kg IV, captisol
[11] = plasma, po, 20 mg/kg, 20 mg/kg po, labrasol/tetraglycol 9:1
[12] = plasma, po, 20 mg/kg, 20 mg/kg po, labrasol:tetraglycol:water 72:8:20

SMILES | IC50 [1, 7] | IC50 ([1]; SKES, ES, EWS-FLI1 Type 2) | further results
O=C(CC1(O)C(=O)Nc2c(Cl)ccc(Cl)c21)c1ccc(N2CC2)cc1 (racemic) [Cmpd 8, 3-(2-(4-(Aziridin-1-yl)phenyl)-2-oxoethyl)-4,7-dichloro-3-hydroxyindolin-2-one] | < 5 µM | < 5 µM | 
O=C(CC1(O)C(=O)Nc2c(Cl)ccc(Cl)c21)c1ccncc1 (racemic) [Cmpd 30, 4,7-dichloro-3-hydroxy-3-(2-oxo-2-(pyridin-4-yl)ethyl)indolin-2-one] | > 5 µM | > 5 µM | 
O=C(CC1(O)C(=O)Nc2c(Cl)ccc(Cl)c21)c1cccnc1 (racemic) [Cmpd 31, 4,7-dichloro-3-hydroxy-3-(2-oxo-2-(pyridin-3-yl)ethyl)indolin-2-one] | > 5 µM | > 5 µM | 
O=C(CC1(O)C(=O)Nc2c(Cl)ccc(Cl)c21)c1ccccn1 (racemic) [Cmpd 32, 4,7-dichloro-3-hydroxy-3-(2-oxo-2-(pyridin-2-yl)ethyl)indolin-2-one] | > 5 µM | > 5 µM | 
NC(=O)c1ccc(C(=O)CC2(O)C(=O)Nc3c(Cl)ccc(Cl)c32)cc1 (racemic) [Cmpd 33, 4-(2-(4,7-dichloro-3-hydroxy-2-oxoindolin-3-yl)acetyl)benzamide] | > 5 µM | > 5 µM | 
O=C(CC1(O)C(=O)Nc2c(Cl)ccc(Cl)c21)c1ccc(O)cc1 (racemic) [Cmpd 34, 4,7-dichloro-3-hydroxy-3-(2-(4-hydroxyphenyl)-2-oxoethyl)indolin-2-one] | > 5 µM | > 5 µM | 
O=C(CC1(O)C(=O)Nc2c(Cl)ccc(Cl)c21)c1ccc(F)c(F)c1 (racemic) [Cmpd 35, 4,7-dichloro-3-(2-(3,4-difluorophenyl)-2-oxoethyl)-3-hydroxyindolin-2-one] | > 5 µM | > 5 µM | 
COc1ccc(C(=O)CC2(O)C(=O)Nc3c(Cl)ccc(Cl)c32)cc1 (single isomer, unassigned) [Cmpd 3, 4,7-Dichloro-3-hydroxy-3-[2-(4-methoxyphenyl-2-oxoethyl)]-1,3-dihydroindol-2-one] |  |  | Remaining (NCF = 60 min) [2]: 112.6%; Remaining (NCF = 60 min) [3]: 92.6%; Remaining (NCF = 60 min) [4]: 97.5%; Remaining (NCF = 60 min) [5]: 100.1%
CNc1ccc(C(=O)CC2(O)C(=O)Nc3c(Cl)ccc(Cl)c32)cc1 (single isomer, unassigned) [Cmpd 5, 4,7-dichloro-3-hydroxy-3-[2-[4-(methylamino)phenyl]-2-oxoethyl]-1H-indol-2-one] |  |  | AUC ([6]; 5 mg/kg IV, captisol): 2324 h * (ng/mL) and 3207 h * (ng/mL); AUC [6, 8]: 5192 h * (ng/mL) and 4939 h * (ng/mL); Tmax [6, 8]: 0.5 h; % F [6, 9]: 39%; AUC [6, 9]: 4354 h * (ng/mL) and 4081 h * (ng/mL); Tmax [6, 9]: 0.5 h; Cmax [6, 10]: 13000 ng/mL; half-life [6, 10]: 1.7 h; Tmax ([6]; plasma, iv, 5 mg/kg, 5 mg/kg IV, captisol, read-out: Tmax): 0.033 h; Cmax [6, 11]: 2180 ng/mL; bioavailability [6, 11]: 56%; half-life [6, 11]: 3.1 h; Tmax ([6]; plasma, po, 20 mg/kg, 20 mg/kg po, labrasol/tetraglycol 9:1, read-out: Tmax): 1 h; Cmax [6, 12]: 1570 ng/mL; bioavailability [6, 12]: 47%; half-life [6, 12]: 2.8 h; Tmax ([6]; plasma, po, 20 mg/kg, 20 mg/kg po, labrasol:tetraglycol:water 72:8:20, read-out: Tmax): 1 h
O=C(CC1(O)C(=O)Nc2c(Cl)ccc(Cl)c21)c1ccc(C2CC2)cc1 (single isomer, unassigned) [Cmpd 13, 4,7-Dichloro-3-(2-(4-cyclopropylphenyl)-2-oxoethyl)-3-hydroxyindolin-2-one] | > 5 µM | > 5 µM | Remaining (NCF = 60 min) [2]: 105.1%; Remaining (NCF = 60 min) [3]: 97.0%; Remaining (NCF = 60 min) [4]: 85.6%; Remaining (NCF = 60 min) [5]: 98.4%
O=C(CC1(O)C(=O)Nc2c(Cl)ccc(Cl)c21)c1ccc(C2CC2)c(F)c1 (single isomer, unassigned) [Cmpd 36, 4,7-Dichloro-3-(2-(4-cyclopropyl-3-fluorophenyl)-2-oxoethyl)-3-hydroxyindolin-2-one] |  |  | Remaining (NCF = 60 min) [2]: 104.0%
O=C(CC1(O)C(=O)Nc2c(Cl)ccc(Cl)c21)c1ccc(C2CC2)cc1F (single isomer, unassigned) [Cmpd 38, 4,7-Dichloro-3-(2-(4-cyclopropyl-2-fluorophenyl)-2-oxoethyl)-3-hydroxyindolin-2-one] |  |  | Remaining (NCF = 60 min) [2]: 99.5%
O=C(CC1(O)C(=O)Nc2c(Cl)ccc(Cl)c21)c1ccc(N2CCCC2)cc1 (stereo not drawn) [Cmpd 17, 4,7-Dichloro-3-hydroxy-3-(2-oxo-2-(4-(pyrrolidin-1-yl)phenyl)ethyl)indolin-2-one] | > 5 µM | > 5 µM | 

The next lines start with results.

IC50 [1, 7] | IC50 ([1]; SKES, ES, EWS-FLI1 Type 2) | SMILES | further results
> 5 µM | > 5 µM | CS(=O)(=O)c1ccc(C(=O)CC2(O)C(=O)Nc3c(Cl)ccc(Cl)c32)cc1 (racemic) [Cmpd 4, 4,7-Dichloro-3-hydroxy-3-(2-(4-(methylsulfonyl)phenyl)-2-oxoethyl)indolin-2-one] | 
> 5 µM | > 5 µM | CC(C)c1ccc(C(=O)CC2(O)C(=O)Nc3c(Cl)ccc(Cl)c32)cc1 (racemic) [Cmpd 9, 4,7-Dichloro-3-hydroxy-3-(2-(4-isopropylphenyl)-2-oxoethyl)indolin-2-one] | 
> 5 µM | > 5 µM | O=C(CC1(O)C(=O)Nc2c(Cl)ccc(Cl)c21)c1ccc(-n2cccn2)cc1 (racemic) [Cmpd 16, 3-(2-(4-(1H-Pyrazol-1-yl)phenyl)-2-oxoethyl)-4,7-dichloro-3-hydroxyindolin-2-one] | 
> 5 µM | > 5 µM | NS(=O)(=O)c1ccc(C(=O)CC2(O)C(=O)Nc3c(Cl)ccc(Cl)c32)cc1 (racemic) [Cmpd 20, 4-(2-(4,7-Dichloro-3-hydroxy-2-oxoindolin-3-yl)acetyl)benzenesulfonamide] | 
> 5 µM | > 5 µM | O=C(CC1(O)C(=O)Nc2c(Cl)ccc(Cl)c21)c1ccc(N2CCCC2)c(F)c1 (racemic) [Cmpd 21, 4,7-Dichloro-3-(2-(3-fluoro-4-(pyrrolidin-1-yl)phenyl)-2-oxoethyl)-3-hydroxyindolin-2-one] | 
< 5 µM | < 5 µM | O=C(CC1(O)C(=O)Nc2c(Cl)ccc(Cl)c21)c1ccc(N2CCC2)cc1 (racemic) [Cmpd 22, 3-(2-(4-(Azetidin-1-yl)phenyl)-2-oxoethyl)-4,7-dichloro-3-hydroxyindolin-2-one] | 
> 5 µM | > 5 µM | COC1CCC(C(=O)CC2(O)C(=O)Nc3c(Cl)ccc(Cl)c32)CC1 (racemic) [Cmpd 23, 4,7-Dichloro-3-hydroxy-3-(2-(4-methoxycyclohexyl)-2-oxoethyl)indolin-2-one] | 
> 5 µM | > 5 µM | COC12CCC(C(=O)CC3(O)C(=O)Nc4c(Cl)ccc(Cl)c43)(CC1)CC2 (racemic) [Cmpd 24, 4,7-Dichloro-3-hydroxy-3-(2-(4-methoxybicyclo[2.2.2]octan-1-yl)-2-oxoethyl)indolin-2-one] | 
> 5 µM | > 5 µM | CN(C)C12CCC(C(=O)CC3(O)C(=O)Nc4c(Cl)ccc(Cl)c43)(CC1)CC2 (racemic) [Cmpd 25, 4,7-Dichloro-3-(2-(4-(dimethylamino)bicyclo[2.2.2]octan-1-yl)-2-oxoethyl)-3-hydroxyindolin-2-one] | 
< 5 µM | < 5 µM | O=C(CC1(O)C(=O)Nc2c(Cl)ccc(Cl)c21)c1ccc(C2CC2)c(F)c1 (racemic) [Cmpd 26, 4,7-Dichloro-3-(2-(4-cyclopropyl-3-fluorophenyl)-2-oxoethyl)-3-hydroxyindolin-2-one] | 
< 5 µM | < 5 µM | O=C(CC1(O)C(=O)Nc2c(Cl)ccc(Cl)c21)c1ccc(C2CC2)cc1F (racemic) [Cmpd 27, 4,7-Dichloro-3-(2-(4-cyclopropyl-2-fluorophenyl)-2-oxoethyl)-3-hydroxyindolin-2-one] | 
> 5 µM | > 5 µM | O=C(CC1(O)C(=O)Nc2c(Cl)ccc(Cl)c21)c1ccc(N2CCOCC2)cc1 (racemic) [Cmpd 29, 4,7-dichloro-3-hydroxy-3-(2-(4-moprholinophenyl)-2-oxoethyl)indolin-2-one] | 

— US9895352B2, “Indolinone compounds and uses thereof” (Oncternal Therapeutics, Inc., priority 2014, dated 2018)
